Literature values, collected in US20170143675A1, “FORMULATIONS FOR TREATMENT OF HYPERTHYROIDISM” (DENDROPHARM GMBH, priority 2014, published 2017).
Where two headings read alike, the source gives them in different places.

Experiments:
cats = conditions: randomized trial

transdermal uptake (after a single dose in PLO): poor
Structure (SMILES): Cn1ccnc1S [methimazole, 2-mercapto-1-methylimidazole]
cats with gastrointestinal side effects (cats; oral administration): 24% | cats with gastrointestinal side effects (cats; transdermal administration in PLO): 4% | reduction of the serum T4 concentration (chronic transdermal administration in PLO): effective
